The values below come from patent US20060247223A1, “Non-imidazole alkylamines as histamine H3- receptor ligands and their therapeutic applications” (priority 1998, published 2006).

Where a name gives a salt, the structure may show the parent alone.

`CCN(CC)CCCCOc1ccc(C#N)cc1` (as salt: oxalate) [Example 56, N-[4-(4-cyanophenoxy)-butyl]-diethylamine] yielded a melting point of 143 to 145 °C.
Take `N#Cc1ccc(OCCCN2CCCC2)cc1` (as salt: oxalate) [Example 58, 1-[3-(4-cyanophenoxy)-propyl]-pyrrolidine]: the melting point was 163 to 165 °C.
The same measure for `N#Cc1ccc(OCCCN2CCCCC2)cc1` (as salt: oxalate) [Example 59, 1-[3-(4-cyanophenoxy)propyl]piperidine]: 151 to 153 °C; for `N#Cc1ccc(OCCCN2CCCCCC2)cc1` (as salt: oxalate) [Example 60, N-[3-(4-cyanophenoxy)-propyl]-hexamethyleneimine]: 124 to 125 °C.
Turning to `CCN(CC)CCCCCCOc1ccc(C#N)cc1` (as salt: oxalate) [Example 61, N-[6-(4-cyanophenoxy)-hexyl]-diethylamine], the melting point fell in the range of 110 to 112 °C.
Under `CCCN(CCC)CCCOc1ccc(C#N)cc1` (as salt: oxalate) [Example 62, N-[3-(4-cyanophenoxy)-propyl]-dipropylamine] stands 127 to 128 °C.
The same measure for `CCN(CC)CCCOc1ccc(/C(C)=N/O)cc1` (as salt: oxalate) [Example 64, 4-(3-diethylaminopropoxy)-acetophenone-oxime]: 99 to 100 °C; for `CC(=O)c1ccc(OCCCN2CCCCC2)cc1` (as salt: oxalate) [Example 65, 1-[3-(4-acetylphenoxy)-propyl]-piperidine]: 159 to 160 °C; for `CC(=O)c1ccc(OCCCN2CCCC(C)C2)cc1` (stereo not shown) (as salt: oxalate) [Example 66, 1-[3-(4-acetylphenoxy)-propyl]-3-methyl-piperidine]: 143 to 144 °C.
The same measure for `CC(=O)c1ccc(OCCCN2CCC(C)CC2)cc1` (as salt: oxalate) [Example 68, 1-[3-(4-acetylphenoxy)-propyl]-4-methyl-piperidine]: 160 to 161 °C; for `CC(=O)c1ccc(OCCCN2C[C@H](C)C[C@H](C)C2)cc1` (as salt: oxalate) [Example 70, 1-[3-(4-acetylphenoxy)-propyl]-3,5-cis-dimethyl-piperidine]: 174 to 175 °C.
Molecule `O=Cc1ccc(OCCCN2CCCCC2)cc1` (as salt: oxalate) [Example 71, 1-[3-(4-formylphenoxy)-propyl]-piperidine] yielded a melting point of 152 to 153 °C.
`CC(C)C(=O)c1ccc(OCCCN2CCCCC2)cc1` (as salt: oxalate) [Example 72, 1-[3-(4-isobutyrylphenoxy)-propyl]-piperidine] registered a melting point of 121 to 122 °C.
Under `CCCC(=O)c1ccc(OCCCN2CCCCC2)cc1` (as salt: oxalate) [Example 74, 1-[3-(4-buyrylphenoxy)propyl]piperidine] stands 138 to 139 °C; under `CC(=O)c1ccc(OCCCN2CC=CCC2)cc1` (as salt: oxalate) [Example 75, 1-[3-(4-acetylphenoxy)-propyl]-1,2,3,6-tetrahydropyridine], 143 to 144 °C.
The same measure for `CC(=O)c1ccc(OC[C@H](C)CN2CCCCC2)cc1` (as salt: oxalate) [Example 77, 1-[3-(4-acetylphenoxy)-2-R-methylpropyl]piperidine]: 149 to 151 °C; for `CC(=O)c1ccc(OCC(C)CN2CCCCC2)cc1` (stereo not shown) (as salt: oxalate) [Example 80, 1-[3-(4-acetylphenoxy)-2-S-methylpropyl]piperidine]: 148 to 150 °C; for `CC1CCCN(CCCOc2ccc([N+](=O)[O-])cc2)C1` (stereo not shown) (as salt: oxalate) [Example 83, 1-[3-(4-nitrophenoxy)propyl]-3-methylpiperidine]: 172 to 174 °C.
The same measure for `CC1CCCCN1CCCOc1ccc([N+](=O)[O-])cc1` (stereo not shown) (as salt: oxalate) [Example 85, 1-[3-(4-nitrophenoxy)propyl]-2-methylpiperidine]: 151 to 153 °C.

In general, melting point refers to the temperature of the solid-liquid transition.
